These results are taken from paper PMC9168369 (Frontiers in Pharmacology, 2022).

As usually defined, the IC50 is the point on the concentration scale where inhibition reaches its midpoint. Usually melting point stands for the temperature of the solid-liquid transition.

Each structure is given as a SMILES string. Like-named read-outs stand apart in the source and are kept apart here. Where only a bound is given, the exact number is not on record here.

For one series, the system named is IDO1. As to conditions: read-out: average IC50, cellular assay; ref Yue et al., 2017; Komiya and Huang, 2018; cited from earlier work.
The test system of series [1] is SHEE cells (human immortalized esophageal epithelial cell line). As to the kind of experiment: Toxicity to SHEE, MTT assay. It is filed as cell-based. The note with it: 48 h, read-out: IC50 SHEE. On the procedure:
Toxicity to SHEE was evaluated by using the MTT assay. The SHEE cells were seeded in 96-well plates with densities of 2,200–2,500 cells/well in 100 μl. One day after seeding, the concentration of the test compounds being between 0 and 50 μM, 0.1% DMSO were added to the cells as control. Approximately 2,200–2,500 transfected cells in 100 μl were incubated in quintuplicate in 96-well plates. After 48 h, MTT was added and incubated in the plate for 1–4 h in the incubator. The absorbance at 490 nm was measured using a microplate reader (Thermo).
For orientation: Tetrazolium dyes change colour on reduction, which living cells bring about.

Another series relates to Hela cells. As to the kind of experiment: Cell anti-proliferative activity, CCK8 assay. It counts as cell-based. As to conditions: Homo sapiens, CCK8, 48 h, 0.25 to 16.0 μM. On the procedure:
Cell anti-proliferative activity to Hela was evaluated by the CCK8 assay. The Hela cells were seeded at a density of 2,000 cells per well into a 96-well microplate in 100 μl of the growth medium. Cells were incubated at 37°C and 5% CO2 overnight. The next day, 100 μl per well of the diluted inhibitor in the growth medium was added with the final concentration from 0.25 to 16.0 μM. The cells were treated with DMSO as control. A series of dilutions were made in 0.1% DMSO in the assay medium so that the final concentration of DMSO was 0.1% in all of treatments. Cells were incubated at 37°C and 5% CO2 for 48 h. Then, 10 μl of CCK8 was added to each well. The plates were incubated at 37°C for 2 h, after that, the plates were recorded by measuring the absorbance at 450 nm with the reference wavelength of 630 nm using an EnVision Multilabel Reader (PerkinElmer). All assays were conducted with three parallel samples and three repetitions.

Details of series [2]: method as in Ma et al. (2019). The note with it: ref Ma et al. (2019); cited from earlier work.
Another series concerns the target T1, human IDO1 (Homo sapiens, UniProt P14902).
T1 construct: Hela cell was selected because of its expression in native human IDO1 induced with IFNγ; endogenous in cells; host or cells: Hela cells (ATCC), induced with human IFN-γ 100 ng/ml
As to the kind of experiment: Hela cell based IDO1 assay (kynurenine readout, IFN-γ induced). As to conditions: Hela cells, human IFN-γ 100 ng/ml, 18 h. On the procedure: To perform the Hela cell based IDO1 assay, Hela cells were seeded at 50,000 cells per well into a 96-well microplate in 100 μl of DMEM complete growth medium overnight. The next day, 100 μl of the diluted inhibitor was added into each well in the growth medium, then human IFN-γ was added with a final concentration of 100 ng/ml. Cells were incubated for 18 h. […] The plate was incubated at 50°C for 30 min to hydrolyze N-formyl kynurenine produced by IDO to kynurenine. The plate was then centrifuged at 2,500 rpm for 10 min to remove sediments. 100 μl of supernatant per well was transferred to another 96-well plate and mixed with 100 μl of 2% (w/v) 4-(dimethylamino) benzaldehyde in acetic acid. The plate was incubated at room temperature for 10 min, the yellow color derived from kynurenine was recorded by measuring the absorbance at 480 nm using a microplate reader (PerkinElmer, United States).

In the case of `NS(=O)(=O)NCCNc1nonc1C(=NO)Nc1ccc(F)c(Br)c1` [Epacadostat], the IC50 in the series on IDO1 was […].

T1 sequence (P14902 whole entry): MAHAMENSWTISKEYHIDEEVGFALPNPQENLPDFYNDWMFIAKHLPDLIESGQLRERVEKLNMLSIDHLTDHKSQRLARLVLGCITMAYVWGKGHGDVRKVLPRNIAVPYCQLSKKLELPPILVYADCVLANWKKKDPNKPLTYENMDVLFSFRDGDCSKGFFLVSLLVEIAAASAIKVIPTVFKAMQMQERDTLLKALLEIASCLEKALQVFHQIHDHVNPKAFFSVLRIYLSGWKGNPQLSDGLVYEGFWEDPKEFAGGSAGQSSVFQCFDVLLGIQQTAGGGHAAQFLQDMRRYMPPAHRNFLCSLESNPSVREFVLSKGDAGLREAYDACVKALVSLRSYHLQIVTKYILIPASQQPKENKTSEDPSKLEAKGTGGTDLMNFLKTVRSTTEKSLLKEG

Consider `C#Cc1cccc(Nc2ncnc3cc(OCCOC)c(OCCOC)cc23)c1` [Erlotinib, reference compound], for which the half-maximal inhibitory concentration (IC50) in series [1] was 21 ± 2.11 µM; in the series on Hela cells, greater than 16 µM.

As to `O[C@H](C[C@H]1c2c(F)cccc2-c2cncn21)[C@H]1CC[C@H](O)CC1` [Navoximod], in series [2], the absorption result is “quickly absorbed” and the tolerability entry was “well tolerated”.

For `COCCOc1cc2ncnc(Nc3cccc(-c4cn(-c5ccccc5)nn4)c3)c2cc1OCCOC` [compound a, [6,7-Bis-(2-methoxy-ethoxy)-quinazolin-4-yl]-[3-(1-phenyl-1H-[1,2,3]triazol-4-yl)-phenyl]-amine], in the series on Hela cells, the IC50 is greater than 16 µM.

With `COCCOc1cc2ncnc(Nc3cccc(-c4cn(Cc5ccccc5)nn4)c3)c2cc1OCCOC` [compound b, N-(3-(1-Benzyl-1H-1,2,3-triazol-4-yl)phenyl)-6,7-bis(2-methoxyethoxy)quinazolin-4-amine], the melting point lay in the range of 89 to 92 °C. Further, the IC50 in series [1] (MTT, 0 to 50 μM) is greater than 50 µM. The IC50 in the series on Hela cells is greater than 16 µM.

Consider `COCCOc1cc2ncnc(Nc3cccc(-c4cn(CCc5ccccc5)nn4)c3)c2cc1OCCOC` [compound c, [6,7-Bis-(2-methoxy-ethoxy)-quinazolin-4-yl]-[3-(1-phenethyl-1H-[1,2,3]triazol-4-yl)-phenyl]-amine], for which the melting point was 109 to 112 °C. In the series on Hela cells, this molecule had an IC50 greater than 16 µM. Further, on human IDO1, inhibition was half-maximal at 47.1 ± 33.2 µM (IC50).

Regarding `COCCOc1cc2ncnc(Nc3cccc(-c4cn(Cc5ccccc5I)nn4)c3)c2cc1OCCOC` [compound d, [6,7-Bis-(2-methoxy-ethoxy)-quinazolin-4-yl]-{3-[1-(2-iodo-benzyl)-1H-[1,2,3]triazol-4-yl]-phenyl}-amine], the melting point lay within 93 to 96 °C. For the same molecule, the IC50 at human IDO1 was determined as 0.4 ± 0.14 µM.

`COCCOc1cc2ncnc(Nc3cccc(-c4cn(Cc5ccccc5Br)nn4)c3)c2cc1OCCOC` [compound e, [6,7-Bis-(2-methoxy-ethoxy)-quinazolin-4-yl]-{3-[1-(2-bromo-benzyl)-1H-[1,2,3]triazol-4-yl]-phenyl}-amine] gave a melting point of 94 to 97 °C. The molecule also yielded a half-maximal inhibitory concentration (IC50) in the series on Hela cells greater than 16 µM. At human IDO1, the IC50 worked out at 0.32 ± 0.07 µM.
